One assay deals with IFN-γ. Kind of assay: Cytokine assay, IFN-γ release from PBMC. In kind it is cell-based. As to conditions: human PBMC, 20 ug/mL PHA, supernatant at 24 hours. The procedure, abridged: (§1)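 Human PBMC (frozen, thawed), RPMI 1640 + 10% FBS; compound at 10, 1, 0.1, 0.01 μM from 10 mM DMSO stock, n=3; cytokine release read.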
Assay [1] relates to T1, PDE4 partially purified from human U-937 myeloid leukemia cells.
T1 construct: PDE4 partially purified from human U-937 myeloid leukemia cells was used
Kind of assay: PDE4 Assay (enzyme from U-937 cells, [3H]cAMP). In kind it is biochemical. As to conditions: PDE4 from U-937 cells, Tris buffer pH 7.5, 20 minutes at 25° C.

A further assay concerns TNF-α. Kind of assay: Cytokine assay, TNF-α release from PBMC. It counts as cell-based. As to conditions: Homo sapiens, PBMC, 24 h, 1 μg/mL LPS, supernatant at 24 hours. The procedure, abridged:
as §1

The test system of another assay is IL-10. Kind of assay: Cytokine assay, IL-10 release from PBMC. It counts as cell-based. The following applies: human PBMC, 20 ug/mL PHA, supernatant at 48 hours. The method in brief:
as §1

For the next assay, the system named is IL-5. Kind of assay: Cytokine assay, IL-5 release from PBMC. It counts as cell-based. As to conditions: human PBMC, 20 ug/mL PHA, supernatant at 48 hours. The method in brief:
as §1

Assay [2] deals with CD-1 (Crl.) derived male mice. Description: Phorbol Ester Induced Mouse Ear Edema Model. It counts as in vivo. As to conditions: topical, 6 h; for inhibition in vivo at 3 mg: 3 mg/ear × 2 topical; for inhibition in vivo at 0.02 mg: 0.02 mg/ear × 2 topical; for inhibition in vivo at 0.06 mg: 0.06 mg/ear × 2 topical; for inhibition in vivo at 0.2 mg: 0.2 mg/ear × 2 topical. The procedure: 1. In Vivo Anti-Inflammation Activity in Phorbol Ester Induced Mouse Ear Edema Model
[…] Dexamethasone (1 mg/ear×2) used as the positive control was administered topically to test animals using the same application schedule. Ear swelling was then measured by a Dyer model micrometer gauge at 6 hours after PMA application as an index of inflammation. Percent inhibition was calculated according to the formula: [(Ic−It)/Ic]×100%, where Ic and It refer to increase of ear thickness (mm) in control and treated mice, respectively.

Another assay deals with IL-2. Kind of assay: Cytokine assay, IL-2 release from PBMC. As to conditions: human PBMC, 20 ug/mL PHA, supernatant at 24 hours. In kind it is cell-based. The method in brief: as §1
Where [3] appears, read: 1 mg/ear × 2 topical, Acetone:Ethanol/1:1, ear swelling 6 hours after PMA.
The mark [4] stands for this setting: 1 mg/ear topical, Acetone:Ethanol/1:1, ear swelling 6 hours after PMA.
The mark [5] stands for this setting: 95% Ethanol, ear swelling 6 hours after PMA.

Experimental findings from US9012431B2, “Boron-containing small molecules as anti-inflammatory agents” (Anacor Pharmaceuticals, Inc., priority 2008, dated 2015) are described below.

Structures can show the parent of a compound that is named as a salt. Bounds are passed on as bounds.

As a reminder, the IC50 is the point on the concentration scale where inhibition reaches its midpoint. Read a high IC50 as a need for much substance. Broadly, the inhibition in vivo is the relative decrease from the control value, in per cent. In the case of `N#Cc1ccc(Oc2ccc3c(c2)COB3O)c(O)c1` [D14, 5-(4-Cyano-2-hydroxyphenoxy)-1,3-dihydro-1-hydroxy-2,1-benzoxaborole], the IC50 in the assay with IFN-γ was less than 1000 nM; in assay [1], less than 1000 nM; in the assay on TNF-α, less than 1000 nM; in the assay on IL-10 it was 1000 to 4000 nM; with IL-5, less than 1000 nM; with IL-2, less than 1000 nM. For the same compound, in assay [2] (0.05 mg/ear × 2 topical, 95% Ethanol, ear swelling 6 hours after PMA), the inhibition in vivo at 0.05 mg is less than 30%. In assay [2] (0.17 mg/ear × 2 topical, 95% Ethanol, ear swelling 6 hours after PMA), the inhibition in vivo at 0.17 mg is less than 30%. For the same compound, the inhibition in vivo at 0.51 mg in assay [2] (0.51 mg/ear × 2 topical, 95% Ethanol, ear swelling 6 hours after PMA) was less than 30%. The inhibition in vivo at 1 mg in assay [2] (1 mg/ear × 2 topical, 95% Ethanol, ear swelling 6 hours after PMA) was less than 30%; in assay [2] (setting [3]), less than 30%.
As to `CN1CCN(C(=O)COc2cc(C#N)ccc2Oc2ccc3c(c2)COB3O)CC1` [D29, 4-(2-(5-cyano-2-(1-hydroxy-1,3-dihydrobenzo[c][1,2]oxaborol-5-yloxy)phenoxy)acetyl)-1-methylpiperazine hydrochloride], the IC50 was less than 1000 nM in the assay with IFN-γ; less than 1000 nM in assay [1]; less than 1000 nM in the assay on TNF-α; more than 10000 nM with IL-10; less than 1000 nM with IL-5; less than 1000 nM in the assay with IL-2. The same compound gave an inhibition in vivo at 1 mg in assay [2] (setting [3]) of less than 30%.
For the compound `N#Cc1ccc(Oc2ccc3c(c2)COB3O)c(CN2CCOCC2)c1` [D32, 4-(5-cyano-2-1-hydroxy-1,3-dihydrobenzo[c][1,2]oxaborol-5-yloxy)benzyl)morpholine hydrochloride], the IC50 (with IFN-γ; in assay [1]; with TNF-α; in the assay on IL-10; with IL-5; in the assay with IL-2) was less than 1000 nM each time. For the same compound, the inhibition in vivo at 1 mg in assay [2] (setting [4]) and in assay [2] (setting [3]) was less than 30% each time.
Turning to `CN1CCN(Cc2cc(C#N)ccc2Oc2ccc3c(c2)COB3O)CC1` [D33, 1-(5-cyano-2-(1-hydroxy-1,3-dihydrobenzo[c][1,2]oxaborol-5-yloxy)benzyl)-4-methylpiperazine-1,4-diium], the IC50 (with IFN-γ; in assay [1]; in the assay on TNF-α; in the assay on IL-10; in the assay on IL-5; with IL-2) was less than 1000 nM in each case. Besides, in assay [2] (setting [4]), the inhibition in vivo at 1 mg is less than 30%.
As to `CN(C)Cc1cc(C#N)ccc1Oc1ccc2c(c1)COB2O` [D34, 1-(5-cyano-2-(1-hydroxy-1,3-dihydrobenzo[c][1,2]oxaborol-5-yloxy)phenyl)-N,N-dimethylmethanaminium], the IC50 with IFN-γ was less than 1000 nM; in assay [1] it was 1000 to 4000 nM; in the assay with TNF-α, 1000 to 4000 nM; in the assay with IL-10 it was 1000 to 4000 nM; with IL-5, 1000 to 4000 nM; with IL-2, less than 1000 nM. Moreover, the inhibition in vivo at 1 mg in assay [2] (setting [4]) was less than 30%.
As for `COC(=O)c1ccc(Oc2ccc3c(c2)COB3O)c(F)c1` [D50, 5-(2-Fluoro-4-methoxycarbonylphenoxy)-1-hydroxy-2,1-benzoxaborole], the IC50 in the assay on IFN-γ is less than 1000 nM; in assay [1] it was less than 1000 nM; in the assay with TNF-α, less than 1000 nM; with IL-10, 4000 to 10000 nM; in the assay with IL-5, 1000 to 4000 nM; with IL-2 it was less than 1000 nM. The same compound displayed an inhibition in vivo at 1 mg in assay [2] (setting [3]) of 60 to 90%.
In the case of `CCNC(=O)c1ccc(Oc2ccc3c(c2)COB3O)nc1` [D63, N-Ethyl-6-(1-hydroxy-1,3-dihydrobenzo[c][1,2]oxaborol-5-yloxy) nicotinamide], the IC50 in the assay with IFN-γ is 1000 to 4000 nM; in assay [1], less than 1000 nM; in the assay on TNF-α it was less than 1000 nM; in the assay on IL-10, 1000 to 4000 nM; in the assay with IL-5, 1000 to 4000 nM; in the assay on IL-2, less than 1000 nM. In addition, in assay [2] (setting [3]), the inhibition in vivo at 1 mg was less than 30%.
Consider `COC(=O)c1ccc(Oc2ccc3c(c2)COB3O)nc1` [D65, Methyl 6-(1-hydroxy-1,3-dihydrobenzo[c][1,2]oxaborol-5-yloxy)nicotinate], for which the IC50 (with IFN-γ; in assay [1]; in the assay on TNF-α; with IL-10; in the assay on IL-5; in the assay on IL-2) was less than 1000 nM throughout. For the same compound, the inhibition in vivo at 1 mg in assay [2] (setting [3]) lay in the range of 30 to 60%.
Regarding `CCCOC(=O)c1ccc(Oc2ccc3c(c2)COB3O)cc1` [D73, 4-(1-Hydroxy-1,3-dihydro-benzo[c][1,2]oxaborol-5-yloxy)-benzoic acid propyl ester], the IC50 with IFN-γ is 4000 to 10000 nM; in assay [1], less than 1000 nM; with TNF-α, 1000 to 4000 nM; with IL-10, more than 10000 nM; in the assay on IL-5, 1000 to 4000 nM; with IL-2 it was 1000 to 4000 nM. The compound further showed an inhibition in vivo at 1 mg in assay [2] (1 mg/ear × 2 topical, vehicle not given, ear swelling 6 hours after PMA) of 30 to 60%. In addition, in assay [2] (vehicle not given, ear swelling 6 hours after PMA), the inhibition in vivo at 3 mg was 60 to 90%.
Regarding `COCCOc1nc(Oc2ccc3c(c2)COB3O)ccc1C#N` [D86], the IC50 (with IFN-γ; in assay [1]; in the assay with TNF-α; with IL-10; with IL-5; in the assay with IL-2) was less than 1000 nM in each case. The compound further came in with an inhibition in vivo at 0.063 mg in assay [2] (0.063 mg/ear × 2 topical, 95% Ethanol, ear swelling 6 hours after PMA) of less than 30%. The inhibition in vivo at 0.21 mg in assay [2] (0.21 mg/ear × 2 topical, 95% Ethanol, ear swelling 6 hours after PMA) is less than 30%. In addition, the inhibition in vivo at 0.63 mg in assay [2] (0.63 mg/ear × 2 topical, 95% Ethanol, ear swelling 6 hours after PMA) is less than 30%. In addition, in assay [2] (setting [5]), the inhibition in vivo at 3 mg is less than 30%.
For `CN(C)c1nc(Oc2ccc3c(c2)COB3O)ccc1C#N` [D95, 2-Dimethylamino-6-(1-hydroxy-1,3-dihydro-benzo[c][1,2]oxaborol-5-yloxy)-nicotinonitrile], the IC50 with IFN-γ was less than 1000 nM; in assay [1] it was less than 1000 nM; in the assay on TNF-α, less than 1000 nM; in the assay with IL-10, 1000 to 4000 nM; with IL-5 it was less than 1000 nM; in the assay on IL-2, less than 1000 nM. The compound further came in with an inhibition in vivo at 0.02 mg in assay [2] (setting [5]) of less than 30%. This compound gave an inhibition in vivo at 0.06 mg in assay [2] (setting [5]) of less than 30%. The compound further displayed an inhibition in vivo at 0.2 mg in assay [2] (setting [5]) of less than 30%.
With `CN(CCO)c1ccc(C#N)c(Oc2ccc3c(c2)COB3O)n1` [D98, 2-(1-hydroxy-1,3-dihydro-benzo[c][1,2]oxaborol-5-yloxy)-6-[(2-hydroxy-ethyl)-methyl-amino]-nicotinonitrile], the IC50 (in the assay with IFN-γ; in assay [1]; in the assay on TNF-α; in the assay with IL-10; in the assay on IL-5; with IL-2) was less than 1000 nM throughout. The inhibition in vivo at 0.02 mg in assay [2] (setting [5]) is less than 30%. Also, in assay [2] (setting [5]), the inhibition in vivo at 0.06 mg was less than 30%. For the same compound, in assay [2] (setting [5]), the inhibition in vivo at 0.2 mg was 30 to 60%.
Consider `N#Cc1ccc(Oc2ccc3c(c2)COB3O)nc1OC1CCCC1` [D100, 2-Cyclopentyloxy-6-(1-hydroxy-1,3-dihydro-benzo[c][1,2]oxaborol-5-yloxy)-nicotinonitrile], for which the IC50 (in the assay on IFN-γ; in assay [1]; in the assay with TNF-α; in the assay with IL-10; in the assay on IL-5; in the assay with IL-2) was less than 1000 nM throughout. The compound further displayed an inhibition in vivo at 0.028 mg in assay [2] (0.028 mg/ear × 2 topical, 95% Ethanol, ear swelling 6 hours after PMA) of less than 30%. The compound also registered an inhibition in vivo at 0.28 mg in assay [2] (0.28 mg/ear × 2 topical, 95% Ethanol, ear swelling 6 hours after PMA) of 30 to 60%.
Regarding `COCCNc1ccc(C#N)c(Oc2ccc3c(c2)COB3O)n1` [D101, 2-(1-Hydroxy-1,3-dihydro-benzo[c][1,2]oxaborol-5-yloxy)-6-(2-methoxy-ethylamino)-nicotinonitrile], the IC50 in the assay with IFN-γ was less than 1000 nM; in assay [1] it was less than 1000 nM; in the assay on TNF-α, less than 1000 nM; in the assay with IL-10 it was 1000 to 4000 nM; with IL-5 it was less than 1000 nM; with IL-2, less than 1000 nM. In addition, the inhibition in vivo at 0.8 mg in assay [2] (0.8 mg/ear × 2 topical, 95% Ethanol, ear swelling 6 hours after PMA) was less than 30%. This compound had an inhibition in vivo at 2.4 mg in assay [2] (2.4 mg/ear × 2 topical, 95% Ethanol, ear swelling 6 hours after PMA) of less than 30%.
Turning to `COc1cc(Oc2ccc3c(c2)COB3O)ncc1C#N` [D109, 6-(1-Hydroxy-1,3-dihydro-benzo[c][1,2]oxaborol-5-yloxy)-4-methoxy-nicotinonitrile], the IC50 (with IFN-γ; in assay [1]; in the assay with TNF-α; with IL-10; in the assay with IL-5; in the assay with IL-2) was less than 1000 nM in each case. Also, the inhibition in vivo at 0.02 mg in assay [2] (setting [5]) is less than 30%. Further, the inhibition in vivo at 0.067 mg in assay [2] (0.067 mg/ear × 2 topical, 95% Ethanol, ear swelling 6 hours after PMA) was less than 30%. The same compound gave an inhibition in vivo at 0.2 mg in assay [2] (setting [5]) of less than 30%.
